Results published in PubChem BioAssay AID1645848.
Converted amounts (≈) assume the structure as drawn.

Settings: buffer; pH 7.4; 6.0 h; 150.0 µM

| SMILES | solubility kinetic |
| --- | --- |
| Cc1sc(NC(=O)Cc2ccc3c(c2)OCO3)nc1-c1ccc2c(c1)CCN2C(=O)c1ccccc1F | < 1 µg/mL |
| CCOc1ccccc1C(=O)Nc1ccncc1C(=O)Nc1cccc(S(=O)(=O)C(F)(F)F)c1 | < 1 µg/mL |
| CNc1nc2c(s1)C(c1ccccc1F)CC(=O)N2 (stereo unspecified) | 13.7 µg/mL (≈ 49.3 µM) |
| O=C(Nc1ccc(N2CCN(c3ncccc3C(F)(F)F)CC2)nc1)c1cccs1 | < 1 µg/mL |
| COc1ccccc1C(=O)Nc1ccccc1C(=O)Nc1cccc(C(F)(F)F)c1 | < 1 µg/mL |
| CCOc1ccc(C(C)CNC(=O)c2cc3sccc3n2Cc2ccccc2)cc1OCC (stereo unspecified) | < 1 µg/mL |
| COC(=O)C1=COC(C)C2CN3CCc4c([nH]c5cc(OC)c(OC)cc45)C3CC12 (stereo unspecified) | 46.9 µg/mL (≈ 114 µM) |
| O=C1Nc2ccccc2/C1=C\c1ccc(O)c(Cl)c1 | 22.8 µg/mL (≈ 83.9 µM) |
| N=c1c2c(ccn1CCc1ccccc1)Oc1ccc3ccccc3c1C2c1ccccc1 (stereo unspecified) | < 1 µg/mL |
| Nc1nc(Nc2ccc(S(N)(=O)=O)cc2)nn1C(=O)c1c(F)cccc1F | 45.6 µg/mL (≈ 116 µM) |
| N#Cc1cc(-c2nc(Nc3ccc(F)c(F)c3)c3ccccc3n2)ccn1 | < 1 µg/mL |
| Cc1cnc(-c2ccccc2C(F)F)nc1NCc1ccc(-c2cccnc2)cc1 | 1.07 µg/mL (≈ 2.66 µM) |
| O=C(Cc1ccccc1)Nc1ccc(S(=O)(=O)Nc2nccs2)cc1 | > 55 µg/mL |
| O=C(O)Cc1ccc2oc(-c3ccc(NC(=O)/C=C/c4ccc(Br)cc4)c(F)c3)nc2c1 | < 1 µg/mL |
| O=C1CCCC2=C1C1(CCCC1)N=C(Nc1nc3cc(Cl)ccc3o1)N2 | < 1 µg/mL |
| NC(=O)C1CCN(c2nc(-c3ccc(N4CCCCC4)nc3)cs2)CC1 | 43.5 µg/mL (≈ 117 µM) |
| O=C1Nc2cccc(Cl)c2/C1=C\c1cc(Cl)c(O)c(Cl)c1 | < 1 µg/mL |
| O=C(Nc1cccc(C(F)(F)F)c1)c1cc2nc(-c3ccccc3)cc(C(F)(F)F)n2n1 | < 1 µg/mL |
| C#C[C@]1(OC(C)=O)CC[C@H]2[C@@H]3CCC4=C/C(=N/O)CC[C@@H]4[C@H]3CC[C@@]21CC | < 1 µg/mL |
| COc1cccc2c1CCCC2CCCN1CCN(C2CCCCC2)CC1 (stereo unspecified) | > 55 µg/mL |
| NC(=O)C1CCN(c2nc(-c3ccc(N)cc3)cs2)CC1 | > 45 µg/mL |
| O=C(Nc1nc2cc(C(F)(F)F)cc(NC3CC3)n2n1)c1cccnc1 | < 1 µg/mL |
| Cc1cnc(-c2ccccc2C(F)F)nc1NCC1CN(c2cnccn2)C1 | > 56 µg/mL |
| CCOc1ccc(NC(=O)CC2C(=O)N(c3ccc(F)cc3)C(=O)N2CCc2sccc2C)cc1 (stereo unspecified) | < 1 µg/mL |
| CC(=O)c1c(C)c2cnc(Nc3ccc(N4CCNCC4)cn3)nc2n(C2CCCC2)c1=O | 17.4 µg/mL (≈ 39 µM) |
| COC(=O)CNC(=O)c1nc(-c2ccc([S+](C)(=O)[O-])cc2)c2cnccn12 | > 57 µg/mL |

| SMILES | solubility kinetic |
| --- | --- |
| Cc1cccc(-n2ncc3c2CCCC3NC(=O)c2c(F)ccc(F)c2F)c1C (stereo unspecified) | 7.25 µg/mL (≈ 18.1 µM) |
| Cc1cc(SCC(=O)c2ccccc2)n2ncc(-c3ccccc3)c2n1 | < 1 µg/mL |
| CC(C)Oc1cccc(-c2ccnc(N3CCC(C(N)=O)CC3)n2)c1 | 8.28 µg/mL (≈ 24.3 µM) |
| O=c1cc(N2CCOCC2)oc2c1ccc1ccccc12 | 16.7 µg/mL (≈ 59.5 µM) |
| C[C@@]1(O)[C@H](O)[C@@H](CO)O[C@H]1n1ccc(N)nc1=O | > 38 µg/mL |
| O=C(CCS(=O)(=O)c1nc(-c2cccs2)cc(C(F)(F)F)n1)Nc1ccc(OC(F)(F)F)cc1 | 11.5 µg/mL (≈ 21.8 µM) |
| Clc1ccc(Nc2nc(-c3ccncc3)nc3ccccc23)cc1Cl | < 1 µg/mL |
| COc1ccc(O)c2c(=O)c3c(OC)cc4c(c3oc12)C1C=COC1O4 (stereo unspecified) | < 1 µg/mL |
| CC(C)c1ccccc1-c1nc2c(c(NCc3ccc(-c4cccnc4)cc3)n1)CNC2 | 40.9 µg/mL (≈ 97 µM) |
| CCC[C@@H]1CN(C(=O)c2ccc(-c3ccc(C)o3)cc2)C[C@H]1NC(C)=O | > 52 µg/mL |
| CCOC(=O)Nc1cc(-c2ccc(C)c(NS(C)(=O)=O)c2)nn2c(C)nnc12 | 33.6 µg/mL (≈ 83.2 µM) |
| O=C1CCCC2=C1C(c1ncccc1Br)N=C(Nc1nc3ccccc3o1)N2 (stereo unspecified) | 7.87 µg/mL (≈ 17.9 µM) |
| O=C(O)c1cnc(-c2ccc(F)cc2)nc1-c1ccncc1 | > 29 µg/mL |
| CC(C(O)c1ccc(O)cc1)N1CCC(Cc2ccccc2)CC1 (stereo unspecified) | > 48 µg/mL |
| Oc1c(C(Nc2nccs2)c2ccc(C(F)(F)F)cc2)ccc2cccnc12 (stereo unspecified) | < 1 µg/mL |
| CC1CCN(S(=O)(=O)c2ccc3c(ccc(=O)n3CC(=O)NCc3ccc(Cl)cc3)c2)CC1 | < 1 µg/mL |
| Cc1ccc(-n2c(C)cc(C3=NNC(=NC4CC4)SC3)c2C)cc1C | 2.55 µg/mL (≈ 7.23 µM) |
| COc1ccc2[nH]cc(CCNC(=O)c3cnn(-c4ccc(C)cc4)c3C3CCN(C(=O)OC(C)(C)C)CC3)c2c1 | 1.56 µg/mL (≈ 2.8 µM) |
| Cc1sc(NC(=O)Cc2ccc3c(c2)OCO3)nc1-c1ccc2c(c1)CCN2C(=O)c1ccccc1C(F)(F)F | < 1 µg/mL |
| Cc1ccc(S(=O)(=O)Nc2ccccc2C(=O)Nc2nc(-c3ccccc3)cs2)cc1 | < 1 µg/mL |
| O=C1CCCC2=C1C(c1ccncc1Br)N=C(Nc1nc3ccccc3o1)N2 (stereo unspecified) | < 1 µg/mL |
| CSc1nc(N)cc(Oc2ccc(-c3nc(Nc4cccc(C(F)(F)F)c4)n[nH]3)cc2)n1 | < 1 µg/mL |
| Cc1ccc(Nc2nc(-c3ccncc3)nc3ccccc23)cc1F | < 1 µg/mL |
| O=C(Nc1nc(-c2ccccc2)cs1)c1ccncc1NS(=O)(=O)c1ccccc1 | 21.2 µg/mL (≈ 48.5 µM) |
| CC(C)(C)OC(=O)NC1CCN(c2nc(-c3ccc(Br)cc3)cs2)CC1 | 6.48 µg/mL (≈ 14.8 µM) |
| Cc1ccc(/C=C/c2nc3ccccc3n2S(=O)(=O)c2ccc(Br)cc2)cc1 | 0.184 µg/mL (≈ 0.406 µM) |

| SMILES | solubility kinetic |
| --- | --- |
| c1ccc2[nH]c(Nc3nc(-c4ccncc4)nc4ccccc34)nc2c1 | < 1 µg/mL |
| Cc1cc(N=Nc2ccc(S(=O)(=O)Nc3ccccn3)cc2)c(N)cc1O | 3.69 µg/mL (≈ 9.63 µM) |
| CCc1ccc(C(=O)Nc2cc(CN3CCN(C)CC3)cc(C(F)(F)F)c2)cc1C#Cc1cnc2ccnn2c1 | < 1 µg/mL |
| CC(=O)N1CCC(NC(=O)c2nc(-c3ccccc3)cc3[nH]ccc23)CC1 | > 80 µg/mL |
| O=S(=O)(Nc1nccs1)c1ccc(NCc2cccc(Br)c2O)cc1 | 36.3 µg/mL (≈ 82.5 µM) |
| Cc1cc(-c2nnc3n2CCCCC3)c(C)n1-c1cccc(Cl)c1 | 36.5 µg/mL (≈ 107 µM) |
| CCOC(=O)c1ccc2c(c1)c(C(C)=O)c(C)n2-c1ccc(OC)cc1 | < 1 µg/mL |
| O=C1Nc2cc(Cl)ccc2/C1=C\c1cc(Cl)c(O)c(Cl)c1 | 5.95 µg/mL (≈ 17.5 µM) |
| Oc1ccc(CNc2cccc(F)c2F)c2cccnc12 | < 1 µg/mL |
| CC(C)(C)c1ccc(-c2ccc(=O)n(CC(=O)NCCc3ccccc3)n2)cc1 | < 1 µg/mL |
| COc1ccc(C2Nc3ccccc3C(=O)N2Cc2ccco2)cc1COc1c(C)cc(NC(C)=O)cc1C (stereo unspecified) | 1.53 µg/mL (≈ 2.92 µM) |
| Fc1cc(Nc2nc(-c3ccncc3)nc3ccccc23)ccc1-c1ccc2[nH]ncc2c1 | < 1 µg/mL |
| Cc1nc(Sc2nnnn2C)c2c(-c3ccccc3)csc2n1 | 19.4 µg/mL (≈ 57.1 µM) |
| O=C(NC1CCCc2c1[nH]c1ccccc21)c1ccccc1 (stereo unspecified) | 7.97 µg/mL (≈ 27.4 µM) |
| OC(CCN1CCCCC1)c1ccc(-c2ccccc2)cc1 (stereo unspecified) | > 44 µg/mL |
| CCN(CC)CCCC(C)Nc1cc(/C=C/c2ccccc2Cl)nc2cc(Cl)ccc12 (stereo unspecified) | 25.4 µg/mL (≈ 55.7 µM) |
| C#CCNC(=O)c1nc(-c2ccc([S+](C)(=O)[O-])cc2)c2cnccn12 | < 1 µg/mL |
| CC(C)=CCNc1ncnc2nc[nH]c12 | > 30 µg/mL |
| CCOC(=O)c1ccnc(CNCC(=O)N(CC)CCN(C)C)c1 | > 50 µg/mL |
| O=[S+]([O-])(Nc1ccccc1)c1ccc(NCc2cccc(Cl)c2F)cc1 | < 1 µg/mL |
| Cc1ccccc1OCC(O)CO (stereo unspecified) | > 27 µg/mL |
| N#Cc1ccc(S(=O)(=O)Nc2cnccc2C(=O)Nc2nc(-c3ccccc3)cs2)cc1 | 6.96 µg/mL (≈ 15.1 µM) |
| CC(=O)Nc1cccc(Nc2nc3ccccc3n3c(C)nnc23)c1 | < 1 µg/mL |
| CC1=C(C(=O)Nc2ccccc2Cl)C(c2ccccc2Br)N=C(Nc2nc3ccccc3o2)N1 (stereo unspecified) | < 1 µg/mL |
| O=C(Nc1nnc(-c2ccc(Cl)cc2)o1)c1ccc(Cl)c(Cl)c1 | < 1 µg/mL |
| NC(=O)C1CCN(c2ncnc(-c3ccc4c(c3)OCCCO4)n2)CC1 | > 52 µg/mL |

| SMILES | solubility kinetic |
| --- | --- |
| Fc1ccc(Nc2nc(-n3ccnc3)nc3ccccc23)cc1F | < 1 µg/mL |
| CCCNC(=O)c1ccc2c(c1)ncn2-c1cc(C)cc(C)c1 | < 1 µg/mL |
| Nc1nc2c(s1)C(c1ccc(F)c(F)c1)CC(=O)N2 (stereo unspecified) | > 42 µg/mL |
| O=[S+]([O-])(Nc1cccc2cccnc12)c1ccc(NCc2ccc(Cl)cc2O)cc1 | < 1 µg/mL |
| Cc1ccc2c(c1)[nH]c1c(N3CCN(Cc4ccccc4)CC3)ncnc12 | < 1 µg/mL |
| Cc1cn2c(-c3cn[nH]c3)cnc2c(Nc2ccc(C(=O)N3CCNCC3)cc2F)n1 | 13.4 µg/mL (≈ 31.8 µM) |
| CCOc1ccc(CCNC(=O)c2cc3sccc3n2Cc2ccc(-n3cncn3)cc2)cc1OCC | < 1 µg/mL |
| O=C(Nc1ccc(Br)cc1)c1ccc(F)c(S(=O)(=O)NC2CCCCCC2)c1 | < 1 µg/mL |
| Cc1cc(C(=O)Nc2nnc(C3CCCCC3)s2)cs1 | < 1 µg/mL |
| Cc1cc(C)nc(NC(=S)N2CCN(c3cccc(C(F)(F)F)n3)CC2)c1 | 20.6 µg/mL (≈ 52 µM) |
| CC(C)COc1ccc(-c2ccc(=O)n(CC(=O)NCCc3ccccc3)n2)cc1 | < 1 µg/mL |
| O=S(=O)(Nc1cnc2ccccc2c1)c1ccc(NCc2ccc(Br)cc2O)cc1 | < 1 µg/mL |
| CC(=O)Nc1ccc(C(=O)Nc2ccc3c(c2)N(C2CCCC2)C(=O)c2ccccc2S3)cc1 | < 1 µg/mL |
| COc1ccc(NC2=C(c3ccc(C(F)(F)F)cc3)C(=O)c3ccccc32)cc1 | 1.04 µg/mL (≈ 2.64 µM) |
| C[C@H]1CN(C(=O)c2nn(C)c3ccccc23)C[C@@H]1c1nc(-c2ccncc2)no1 | 34.9 µg/mL (≈ 89.8 µM) |
| Cc1nsc(N)c1C(=O)N(C)CCOc1ccccc1Cl | > 48 µg/mL |
| Fc1ccc(Nc2nc(-c3ccnc4ccccc34)nc3ccccc23)cc1F | < 1 µg/mL |
| CCOc1ccc(CCNC(=O)c2cc3c(s2)CCC3)cc1OCC | 4.46 µg/mL (≈ 12.4 µM) |
| Cc1cc(Cl)ccc1COc1ccnn1-c1cc(C(=O)O)ccn1 | > 51 µg/mL |
| COc1cc2ncnc(Oc3cccc(NC(=O)Nc4cc(C(C)(C)C(F)(F)F)on4)c3)c2cc1OC | 8.62 µg/mL (≈ 16.7 µM) |
| COc1ccc(OC)c(N2C(=O)C(Cl)=C(N3CCCCC3)C2=O)c1 | < 1 µg/mL |
| CN1C(=O)C(=O)N2C(=C[C@]3(c4c[nH]c5ccccc45)c4ccccc4N[C@H]23)C1=O | < 1 µg/mL |
| O=C1Nc2ccccc2/C1=C\c1ccc([N+](=O)[O-])cc1 | < 1 µg/mL |
